A short description of data set [1]: Mouse Pharmacokinetics Studies (50 mg/kg oral gavage, plasma LC-MS/MS). It counts as in vivo. Conditions: Male C57BL/6 mice, non-fasted; for AUC(0-t) / Cmax / Tmax: mouse; for Tmax: read-out: PK: Tmax. How it is done:
Compounds were formulated in 5% DMSO, 5% Solutol, and 90% PBS without Ca and Mg (pH 7.4) at a concentration of 5 mg/mL. Male C57BL/6 mice (n=3/compound) were administered a 50 mg/kg dose of each compound by oral gavage under a non-fasted condition. Blood samples were collected via the saphenous vein onto K2-EDTA at 0.25, 0.5, 1, 2, 4, 8 and 24 hours after dosing, and plasma was prepared and stored at −80° C. until analysis. Plasma sample preparation for analysis was done by protein precipitation using acetonitrile (including Verapamil as an internal standard) followed by centrifugation. Compound concentrations were determined in extracted plasma using LC-MS/MS relative to a 12-point standard curve covering the 1 to 4000 nM range. Non-compartmental analysis using Phoenix WinNonlin was used to estimate pharmacokinetic parameters including area under the curve, clearance, and half-life. The administered dose was confirmed by analysis of residual dosing material by UPLC-UV relative to a single point calibration sample.

For the next data set, the target named is T1, human MRGPRX2 (Homo sapiens, UniProt Q96LB1).
T1 construct: expressed in transfected cells
T1 sequence (Q96LB1 1-330): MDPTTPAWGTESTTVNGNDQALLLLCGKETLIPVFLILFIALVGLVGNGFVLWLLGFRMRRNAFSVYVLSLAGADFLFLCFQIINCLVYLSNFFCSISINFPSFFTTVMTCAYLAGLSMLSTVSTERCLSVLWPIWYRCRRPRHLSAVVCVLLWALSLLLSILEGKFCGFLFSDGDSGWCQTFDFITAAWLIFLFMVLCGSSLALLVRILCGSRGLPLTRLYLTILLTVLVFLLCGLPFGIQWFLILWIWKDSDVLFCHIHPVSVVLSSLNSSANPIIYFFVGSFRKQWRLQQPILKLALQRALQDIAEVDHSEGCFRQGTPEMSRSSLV
Put plainly: MRGPRX2 activity: IP-One HTRF antagonist assay in CHO cells versus Cortistatin-14. The conditions noted are these: CHO cells stably expressing human MRGPRX2; versus 0.3 uM Cortistatin-14 agonist; IP-1 HTRF. It is filed as cell-based. The method, then:
CHO cells stably transfected to express human MRGPRX2 were maintained in an incubator at 37° C. with 5% CO2 and grown in F12 (HAM) media with 10% fetal bovine serum (FBS), 1% Glutamax, 1% penicillin/streptomycin, 800 μg/mL Geneticin (G418), and 300 μg/mL Hygromycin B.
Cells were plated in a 384-well assay plate at 20,000 cells per well in 12 μL of Opti-MEM and kept in an incubator overnight. On the day of the assay, compounds solubilized at 10 mM in DMSO were added as a 10-point curve (30 uM final top concentration with 1:3 serial dilutions) using a Tecan D300E digital dispenser. Agonists were diluted in assay buffer (final concentrations of 5.7 mM Tris-HCl, 43 mM NaCl, 50 mM LiCl, pH=8) and 2 μL of the agonist Cortistatin-14 (CPC Scientific, catalog CORT-002) are added to each well. Final concentrations of agonists were 0.3 μM Cortistatin. Final concentrations of DMSO were kept consistent across the plate. Plates were incubated in the dark for 1 h at 37° C. and then for 1 h at room temperature. IP-1 standards and HTRF detection reagents were added according to the IP-One-Gq Kit purchased from Cisbio (part number 62IPAPEJ) and incubated in the dark for 1 h at room temperature. The plate was read on a Molecular Devices SpectraMax iD5 plate reader. The HTRF ratio was calculated from the raw data and graphed using GraphPad Prism to calculate an IC50 value for each compound.
The activity ranges are denoted as follows: “+++++” denotes antagonist activity <100 nM; “++++” denotes antagonist activity between 100 and 500 nM; “+++” denotes activity between 501 and 1000 nM; “[…]” denotes activity between 1001 and 2500 nM; and “+” denotes activity >2500 nM
In general terms: In TR-FRET formats the signal depends on donor and acceptor labels being close together.

As a reminder, the AUC(0-t) is exposure summed from dosing to a finite time, without extrapolation to infinity. Lower therefore signals low exposure. A word on the Cmax: it is the peak of the concentration-time curve. The Tmax is the time from dosing to the highest level. By IC50 is commonly meant the point on the concentration scale where inhibition reaches its midpoint.

With `O=C(N[C@@H]1CCC[C@H](Nc2cc(C(F)(F)F)nc3ccc(Cl)cc23)C1)c1cnn(C(F)F)c1` [Example 4-399], in data set [1], the “AUC 0-24” value came out at 230 µM·h, the AUC(0-t) worked out at 230 µM·h, the Cmax amounted to 19 µM and the Tmax turned out to be 3.7 h.

On to `COc1ccc(C(=O)N[C@@H]2CCC[C@H](Nc3cc(C(F)(F)F)nc4ccc(F)cc34)C2)cc1` [Example 1-4], for which, in data set [1], the “AUC 0-24” value came out at 120 µM·h, the AUC(0-t) came out at 120 µM·h, the Cmax came to 8.6 µM and the Tmax was 6.7 h.

Turning to `Nc1ncccc1C(=O)N[C@@H]1CCC[C@H](Nc2cc(C(F)(F)F)nc3ccc(Cl)cc23)C1` [Example 4-409], the IC50 at human MRGPRX2 was under 0.1 µM. Besides, in data set [1], the “AUC 0-24” value is 280 µM·h, the AUC(0-t) turned out to be 280 µM·h, the Cmax was 25 µM and the Tmax turned out to be 2.7 h.

At human MRGPRX2, `Nc1ccc(C(=O)N[C@@H]2CCC[C@H](Nc3cc(C(F)(F)F)nc4ccc(Cl)cc34)C2)cn1` [Example 3-19] came in with a concentration for half-maximal inhibition (IC50) of under 0.1 µM. Further, in data set [1], the “AUC 0-24” value was found to be 220 µM·h, the AUC(0-t) is 220 µM·h, the Cmax came to 46 µM and the Tmax turned out to be 0.83 h.

Take `CCn1cc(C(=O)N[C@@H]2CCC[C@H](Nc3cc(C(F)(F)F)nc4ccc(Cl)cc34)C2)cn1` [Example 4-366]: in data set [1], the “AUC 0-24” value was determined as 290 µM·h, the AUC(0-t) was found to be 290 µM·h, the Cmax is 44 µM and the Tmax was determined as 1 h.

`Cc1nn(C(C)C)cc1C(=O)N[C@@H]1CCC[C@H](Nc2cc(C(F)(F)F)nc3ccc(Cl)cc23)C1` [Example 4-402] registered an IC50 on human MRGPRX2 of under 0.1 µM. Besides, in data set [1], the “AUC 0-24” value came to 150 µM·h, the AUC(0-t) was 150 µM·h, the Cmax is 14 µM and the Tmax stood at 2 h.

As to `Cc1ccc(C(=O)N[C@@H]2CCC[C@H](Nc3cc(C(F)(F)F)nc4ccc(Cl)cc34)C2)cn1` [Example 4-403], on human MRGPRX2, the 50% inhibitory concentration (IC50) is under 0.1 µM. Besides, in data set [1], the “AUC 0-24” value was found to be 130 µM·h, the AUC(0-t) turned out to be 130 µM·h, the Cmax was 15 µM and the Tmax turned out to be 2.3 h.

On human MRGPRX2, `Cc1cn(C)cc1C(=O)N[C@@H]1CCC[C@H](Nc2cc(C(F)(F)F)nc3ccc(Cl)cc23)C1` [Example 4-417] registered an IC50 of under 0.1 µM.

Compound `Cc1ccc2nc(C(F)(F)F)cc(N[C@H]3CCC[C@@H](NC(=O)c4cccc(N(C)C)c4)C3)c2c1` [Example 4-159] showed an IC50 on human MRGPRX2 of 0.1 to 0.5 µM.

`O=C(N[C@@H]1CCC[C@H](Nc2cc(C(F)(F)F)nc3ccc(F)cc23)C1)c1cccc(O)c1` [Example 4-284]: the IC50 on human MRGPRX2 is under 0.1 µM.

For the compound `O=C(N[C@@H]1CCC[C@H](Nc2cc(C(F)(F)F)nc3ccc(Cl)cc23)C1)c1cnn(C2CCCCC2)c1` [Example 4-487], the IC50 on human MRGPRX2 is under 0.1 µM.

Turning to `Cc1c(C(=O)N[C@@H]2CCC[C@H](Nc3cc(C(F)(F)F)nc4ccc(Cl)cc34)C2)ccn1CCF` [Example 5-1], on human MRGPRX2, the IC50 was under 0.1 µM.

At human MRGPRX2, `O=C(N[C@@H]1CCC[C@H](Nc2cc(C(F)(F)F)nc3ccc(Cl)cc23)C1)c1ncco1` [Example 4-424] returned an IC50 of under 0.1 µM.

`Cn1cc2c(n1)CCN(C(=O)N[C@@H]1CCC[C@H](Nc3cc(C(F)(F)F)nc4ccc(Cl)cc34)C1)C2` [Example 8-16] showed an IC50 at human MRGPRX2 of under 0.1 µM.

As for `O=C(N[C@@H]1CCC[C@H](Nc2cc(C(F)(F)F)nc3ccc(Cl)cc23)C1)c1ccc(N2CC2)cc1` [Example 4-415], at human MRGPRX2, the IC50 is under 0.1 µM.

On human MRGPRX2, `O=C(N[C@@H]1CCC[C@H](Nc2cc(C(F)(F)F)nc3ccc(Cl)cc23)C1)c1cccc(Cl)c1` [Example 4-249] gave an IC50 of 0.1 to 0.5 µM.

`Cc1c(C(=O)N[C@@H]2CCC[C@H](Nc3cc(C(F)(F)F)nc4ccc(Cl)cc34)C2)cnn1C1CCNCC1` [Example 19, N-((1R,3S)-3-((6-chloro-2-(trifluoromethyl)quinolin-4-yl)amino)cyclohexyl)-5-methyl-1-(piperidin-4-yl)-1H-pyrazole-4-carboxamide]: the IC50 at human MRGPRX2 is under 0.1 µM.

Take `O=C(N[C@@H]1CCC[C@H](Nc2cc(C(F)(F)F)nc3ccc(Cl)cc23)C1)c1cncc2cn[nH]c12` [Example 4-398]: on human MRGPRX2, the IC50 was under 0.1 µM.

At human MRGPRX2, `Cn1cc(C(=O)N[C@@H]2CCC[C@H](Nc3cc(C(F)(F)F)nc4ccc(Cl)cc34)C2)c(C(F)F)n1` [Example 4-404] yielded an IC50 of under 0.1 µM.

For the compound `O=C(N[C@@H]1CCC[C@H](Nc2cc(C(F)(F)F)nc3ccc(Cl)cc23)C1)c1cnn(C2COC2)c1` [Example 4-407], at human MRGPRX2, the IC50 was under 0.1 µM.

Turning to `O=C(N[C@@H]1CCC[C@H](Nc2cc(C(F)(F)F)nc3ccc(Cl)cc23)C1)c1cccc2[nH]ccc12` [Example 4-223], the IC50 on human MRGPRX2 was under 0.1 µM.

`O=C(N[C@@H]1CCC[C@H](Nc2cc(C(F)(F)F)nc3ccc(Cl)cc23)C1)c1cn[nH]c1C1CC1` [Example 4-405] had an IC50 on human MRGPRX2 of under 0.1 µM.

Take `CN(C)c1cccc(C(=O)N[C@@H]2CCC[C@H](Nc3cc(C(F)(F)F)nc4ccc(Cl)cc34)C2)c1` [Example 4-216]: the IC50 at human MRGPRX2 is 0.1 to 0.5 µM.

For the compound `O=C(CCc1cc(Br)ccc1F)N[C@@H]1CCC[C@H](Nc2cc(C(F)(F)F)nc3ccccc23)C1` (racemic) [Example 4-74], the IC50 at human MRGPRX2 is over 2.5 µM.

On to `O=C(N[C@@H]1CCC[C@H](Nc2cc(C(F)(F)F)nc3ccc(Cl)cc23)C1)c1ccc(C(=O)N2CCOCC2)cc1` [Example 3-20], for which the IC50 at human MRGPRX2 was under 0.1 µM.

Regarding `CC1C(C(=O)N[C@@H]2CCC[C@H](Nc3cc(C(F)(F)F)nc4ccccc34)C2)CC2CC1C2(C)C` (mixture of isomers) [Example 4-64], the IC50 at human MRGPRX2 was over 2.5 µM.

For the compound `Cn1ccc(C(=O)N[C@@H]2CCC[C@H](Nc3cc(C(F)(F)F)nc4ccc(Cl)cc34)C2)c1` [Example 4-416], the IC50 at human MRGPRX2 was under 0.1 µM.

As for `COC(=O)c1cccc(C(=O)N[C@@H]2CCC[C@H](Nc3cc(C(F)(F)F)nc4ccccc34)C2)c1` [Example 3-5], the IC50 at human MRGPRX2 was in the range of 0.1 to 0.5 µM.

As for `CN(C)Cc1ccc(C(=O)N[C@@H]2CCC[C@H](Nc3cc(C(F)(F)F)nc4ccc(Cl)cc34)C2)cc1` [Example 4-410], on human MRGPRX2, the IC50 is under 0.1 µM.

On to `Cc1cc(C(=O)N[C@@H]2CCC[C@H](Nc3cc(C(F)(F)F)nc4ccc(Cl)cc34)C2)co1` [Example 4-419], for which the IC50 on human MRGPRX2 was under 0.1 µM.

On to `C=CC12CCC(C(=O)N[C@@H]3CCC[C@H](Nc4cc(C(F)(F)F)nc5ccccc45)C3)(CC1)CO2` [Example 4-171], for which the IC50 on human MRGPRX2 was 0.501 to 1 µM.

Source of the values: patent US12129244B2, “Modulators of Mas-related G-protein receptor X2 and related products and methods” (Escient Pharmaceuticals, Inc., priority 2022, dated 2024).
